According to patent US20190290772A1 (published 2019):

Experiments:
[1] = test system: diet-induced obese (DIO) mice; experiment: Weight-lowering and metabolic pharmacology in diet-induced obese mice on HFHSD; type: in vivo; settings: for effect on body weight: DIO mice on HFHSD, equimolar doses, daily s.c. (FIG. 5A); for food intake: DIO mice (FIG. 5C)
Method: (§1) For pharmacology studies on energy metabolism in obese mice (DIO mice), male C57Bl/6j mice (Jackson Laboratories) were fed a diabetogenic diet (Research Diets D12331), which is a high-sucrose diet with 58% kcal from fat 25.5% kcal from carbohydrates, and 16.4% kcal from protein. Dietary challenges began at 8 weeks of age. HFHSD mice were single- or group-housed on a 12:12-h light-dark cycle at 22° C. with free access to food and water. Mice were maintained under these conditions for a minimum of 16 weeks before initiation of pharmacological studies and were between the ages of 6 months to 12 months old. All injections and tests were performed during the light cycle. Compounds were administered in a vehicle of 1% Tween-80 and 1% DMSO and were given by daily subcutaneous injections at the indicated doses at a volume of 5 μl per g body weight. Mice were randomized and evenly distributed to test groups according to body weight and body composition. If ex vivo molecular biology/histology/biochemistry analyses were performed, the entire group of mice for each treatment was analyzed and scored in a blinded fashion.
Compounds were administered by repeated subcutaneous injections in the middle of the light phase at the indicated doses with the indicated durations. Co-administration of compounds was administered by single formulated injections. Body weights and food intake were measured every day or every other day after the first injection. All studies with wild-type mice were performed with a group size of n=8 or greater using mice on a C57B16j background.
For assessment of intraperitoneal glucose tolerance during chronic treatment, the challenge tests were performed at least 24 hours after the last administration of compounds. The investigators were not blinded to group allocation during the in vivo experiments or to the assessment of longitudinal endpoints. All rodent studies were approved by and performed according to the guidelines of the Institutional Animal Care and Use Committee of the Helmholtz Center Munich, University of Cincinnati, Universite de Lyon, and in accordance with guidelines of the Association for the Assessment and Accreditation of Laboratory and Animal Care (AAALAC # Unit Number: 001057) and appropriate federal, state and local guidelines, respectively.
Whole-body composition (fat and lean mass) was measured using nuclear magnetic resonance technology (EchoMRI).

[2] = target: human glucagon receptor (GcgR) (Homo sapiens, UniProt P47871); experiment: Human glucagon receptor activation (Table 1); type: cell-based; settings: read-out: EC50 (nM) hGcgR
[3] = test system: diet-induced obese (DIO) mice; experiment: Heart weight / cardiac hypertrophy in DIO mice; settings: mouse, in vivo
Method: For pharmacology studies on energy metabolism in obese mice (DIO mice), male C57Bl/6j mice (Jackson Laboratories) were fed a diabetogenic diet (Research Diets D12331), which is a high-sucrose diet with 58% kcal from fat 25.5% kcal from carbohydrates, and 16.4% kcal from protein. Dietary challenges began at 8 weeks of age. HFHSD mice were single- or group-housed on a 12:12-h light-dark cycle at 22° C. with free access to food and water. Mice were maintained under these conditions for a minimum of 16 weeks before initiation of pharmacological studies and were between the ages of 6 months to 12 months old. All injections and tests were performed during the light cycle. Compounds were administered in a vehicle of 1% Tween-80 and 1% DMSO and were given by daily subcutaneous injections at the indicated doses at a volume of 5 μl per g body weight. Mice were randomized and evenly distributed to test groups according to body weight and body composition. If ex vivo molecular biology/histology/biochemistry analyses were performed, the entire group of mice for each treatment was analyzed and scored in a blinded fashion. Compounds were administered by repeated subcutaneous injections in the middle of the light phase at the indicated doses with the indicated durations. […] Body weights and food intake were measured every day or every other day after the first injection. […]

[4] = test system: diet-induced obese (DIO) mice; experiment: Indirect calorimetry in DIO mice (energy expenditure, RER, home-cage activity, food intake); type: in vivo
Method: as §1, with “fashion. Energy intake, energy expenditure, respiratory exchange ratio, and home-cage activity were assessed using a combined indirect calorimetry system (TSE Systems). O2 consumption and CO2 production were measured every 10 min for a total of up to 160 h (after 24 h of adaptation) to determine the respiratory quotient and energy expenditure after an initial treatment regimen. Food intake was determined continuously for the same time as the indirect calorimetry assessments by integration of scales into the sealed cage environment. Home-cage locomotor activity was determined using a multidimensional infrared light beam system with beams scanning the bottom and top levels of the cage, and activity being expressed as beam breaks.” for “fashion.”

For `CC[C@H](C)[C@H](NC(=O)[C@H](Cc1ccccc1)NC(=O)[C@H](CCC(=O)O)NC(=O)[C@H](CCCCN)NC(=O)[C@H](C)NC(=O)[C@H](C)NC(=O)[C@H](CCC(N)=O)NC(=O)[C@H](CCC(=O)O)NC(=O)[C@H](CCC(=O)O)NC(=O)[C@H](CC(C)C)NC(=O)[C@H](Cc1ccc(O)cc1)NC(=O)[C@H](CO)NC(=O)[C@H](CO)NC(=O)[C@@H](NC(=O)[C@H](CC(=O)O)NC(=O)[C@H](CO)NC(=O)[C@@H](NC(=O)[C@H](Cc1ccccc1)NC(=O)[C@@H](NC(=O)CNC(=O)[C@H](CCC(=O)O)NC(=O)C(C)(C)NC(=O)[C@@H](N)Cc1c[nH]cn1)[C@@H](C)O)[C@@H](C)O)C(C)C)C(=O)N[C@@H](C)C(=O)N[C@@H](Cc1c[nH]c2ccccc12)C(=O)N[C@@H](CC(C)C)C(=O)N[C@H](C(=O)N[C@@H](CCCCN)C(=O)NCC(=O)NCC(=O)N1CCC[C@H]1C(=O)N[C@@H](CO)C(=O)N[C@@H](CO)C(=O)NCC(=O)N[C@@H](C)C(=O)N1CCC[C@H]1C(=O)N1CCC[C@H]1C(=O)N1CCC[C@H]1C(=O)N[C@@H](CO)C(=O)N[C@@H](CCCCN)C(N)=O)C(C)C` [IUB48], the “effect on body weight” value [1] was “minimal impact on body weight” and the EC50 [2] was greater than 100 nM.
With `CC[C@H](C)[C@H](NC(=O)[C@H](Cc1ccccc1)NC(=O)[C@H](CCC(=O)O)NC(=O)[C@H](CCCCN)NC(=O)[C@H](C)NC(=O)[C@H](C)NC(=O)[C@H](CCC(N)=O)NC(=O)[C@H](CCC(=O)O)NC(=O)[C@H](CCC(=O)O)NC(=O)[C@H](CC(C)C)NC(=O)[C@H](Cc1ccc(O)cc1)NC(=O)[C@H](CO)NC(=O)[C@H](CO)NC(=O)[C@@H](NC(=O)[C@H](CC(=O)O)NC(=O)[C@H](CO)NC(=O)[C@@H](NC(=O)[C@H](Cc1ccccc1)NC(=O)[C@@H](NC(=O)CNC(=O)[C@H](CCC(=O)O)NC(=O)C(C)(C)NC(=O)[C@@H](N)Cc1c[nH]cn1)[C@@H](C)O)[C@@H](C)O)C(C)C)C(=O)N[C@@H](C)C(=O)N[C@@H](Cc1c[nH]c2ccccc12)C(=O)N[C@@H](CC(C)C)C(=O)N[C@H](C(=O)N[C@@H](CCCCN)C(=O)NCC(=O)NCC(=O)N1CCC[C@H]1C(=O)N[C@@H](CO)C(=O)N[C@@H](CO)C(=O)NCC(=O)N[C@@H](C)C(=O)N1CCC[C@H]1C(=O)N1CCC[C@H]1C(=O)N1CCC[C@H]1C(=O)N[C@@H](CO)C(=O)N[C@@H](CCCCNC(=O)CC[C@H](NC(=O)[C@@H](N)Cc1cc(I)c(Oc2ccc(O)c(I)c2)c(I)c1)C(=O)O)C(N)=O)C(C)C` [IUB686, IUB48-(gE-T3-NH2)-amide] the “heart weight / cardiac hypertrophy” value [3] was “did not increase raw heart weight” and the EC50 [2] was greater than 100 nM.
`CC[C@H](C)[C@H](NC(=O)[C@H](Cc1ccccc1)NC(=O)[C@H](CCC(=O)O)NC(=O)[C@H](CCCCN)NC(=O)[C@H](C)NC(=O)[C@H](C)NC(=O)[C@H](CCC(N)=O)NC(=O)[C@H](CCC(=O)O)NC(=O)[C@H](CCC(=O)O)NC(=O)[C@H](CC(C)C)NC(=O)[C@H](Cc1ccc(O)cc1)NC(=O)[C@H](CO)NC(=O)[C@H](CO)NC(=O)[C@@H](NC(=O)[C@H](CC(=O)O)NC(=O)[C@H](CO)NC(=O)[C@@H](NC(=O)[C@H](Cc1ccccc1)NC(=O)[C@@H](NC(=O)CNC(=O)[C@H](CCC(=O)O)NC(=O)C(C)(C)NC(=O)[C@@H](N)Cc1c[nH]cn1)[C@@H](C)O)[C@@H](C)O)C(C)C)C(=O)N[C@@H](C)C(=O)N[C@@H](Cc1c[nH]c2ccccc12)C(=O)N[C@@H](CC(C)C)C(=O)N[C@H](C(=O)N[C@@H](CCCCN)C(=O)NCC(=O)NCC(=O)N1CCC[C@H]1C(=O)N[C@@H](CO)C(=O)N[C@@H](CO)C(=O)NCC(=O)N[C@@H](C)C(=O)N1CCC[C@H]1C(=O)N1CCC[C@H]1C(=O)N1CCC[C@H]1C(=O)N[C@@H](CO)C(=O)N[C@@H](CCCCNC(=O)CCC(=O)N[C@@H](Cc1cc(I)c(Oc2ccc(O)c(I)c2)c(I)c1)C(=O)O)C(N)=O)C(C)C` [IUB687, IUB48-(Suc-T3-OH)-amide] was tested, and the food intake [1] was “no reductions in food intake”, the “effect on body weight” value [1] was “significantly lowered body weight in a dose-dependent manner” and the “absolute decrease in body weight from baseline” value ([1]; DIO mice, 100 nmoles/kg, daily subcutaneous treatment, after a week (FIG. 5A)) was 11%. The EC50 [2] was greater than 100 nM.
`N[C@@H](Cc1cc(I)c(Oc2ccc(O)c(I)c2)c(I)c1)C(=O)O` [Peptide T3, Triiodothyronine] was tested, and the “food intake during calorimetry” value ([4]; DIO mice (FIG. 6D)) was “hyperphagia”, the “body weight loss during calorimetry study” value ([4]; DIO mice (FIG. 6E)) was “less body weight loss” and the “home cage / ambulatory activity” value ([4]; DIO mice (FIG. 6F)) was “significantly increased home cage activity”. For the same molecule, the whole-body energy expenditure ([4]; DIO mice, indirect calorimetry (FIG. 6C)) was “substantially increased whole-body energy expenditure”, the food intake [1] was “increased” and the “effect on body weight” value [1] was “minimal impact on body weight”. For the same molecule, the glucose tolerance ([1]; DIO mice, higher dose, equimolar (FIG. 5D)) was “improved glycemic control”.
